From patent US12312343B2, “Rotomeric isomers of 4-alkyl-5-heteroaryl-3H-1,2-dithiole-3-thiones” (ST IP HOLDING AG, priority 2018, dated 2025)

How the values were obtained:
PTGS1 = test: Human oxidative stress RT2 Profiler PCR array in HGEPp cells: PTGS1; assay type: cell-based; conditions: 100 μg/ml, 24 h, RT-PCR ΔΔCt
Description: (§1) RT-PCR was performed on an iCycler.

GCLM = test: Human oxidative stress RT2 Profiler PCR array in HGEPp cells: GCLM; assay type: cell-based; conditions: 100 μg/ml, 24 h, RT-PCR ΔΔCt
Description: as §1

GPX1 = test: Human oxidative stress RT2 Profiler PCR array in HGEPp cells: GPX1; assay type: cell-based; conditions: 100 μg/ml, 24 h, RT-PCR ΔΔCt
Description: as §1

SOD1 = test: Human oxidative stress RT2 Profiler PCR array in HGEPp cells: SOD1; assay type: cell-based; conditions: 100 μg/ml, 24 h, RT-PCR ΔΔCt
Description: as §1

GSTP1 = test: Human oxidative stress RT2 Profiler PCR array in HGEPp cells: GSTP1; assay type: cell-based; conditions: 100 μg/ml, 24 h, RT-PCR ΔΔCt
Description: as §1

UCP2 = test: Human oxidative stress RT2 Profiler PCR array in HGEPp cells: UCP2; assay type: cell-based; conditions: 100 μg/ml, 24 h, RT-PCR ΔΔCt
Description: as §1

GTF2i = test: Human oxidative stress RT2 Profiler PCR array in HGEPp cells: GTF2i; assay type: cell-based; conditions: 100 μg/ml, 24 h, RT-PCR ΔΔCt
Description: as §1

HGEPp cells [1] = conditions: 100 μg/mL pretreatment; taken from PCT/IB2017/001312; cited from earlier work
GCLC = test: Human oxidative stress RT2 Profiler PCR array in HGEPp cells: GCLC; assay type: cell-based; conditions: 100 μg/ml, 24 h, RT-PCR ΔΔCt
Description: as §1

NQO1 = test: Human oxidative stress RT2 Profiler PCR array in HGEPp cells: NQO1; assay type: cell-based; conditions: 100 μg/ml, 24 h, RT-PCR ΔΔCt
Description: as §1

ALOX12 = test: Human oxidative stress RT2 Profiler PCR array in HGEPp cells: ALOX12; assay type: cell-based; conditions: 100 μg/ml, 24 h, RT-PCR ΔΔCt
Description: as §1

MPO = test: Human oxidative stress RT2 Profiler PCR array in HGEPp cells: MPO; conditions: 100 μg/ml, 24 h, RT-PCR ΔΔCt
Description: (§2) Pooled primary HGEPp cells were propagated in CnT-Prime epithelial culture medium provided by CellnTec on 100 mm petri dishes coated with 30 mg/ml Type I rat tail collagen (BD Biosciences) diluted in Dulbecco's phosphate-buffered saline (DPBS). HGEPp cells were grown in 12×60 mm Nunc™ Cell Culture dishes at a 2.5×10^4 cells/cm2 density concentration.
(§3) All dosing solutions contained 0.3% of DMSO which is well below the maximum tolerated DMSO percent of 0.8% for HGEPp cells.
(§4) The cDNA from above was mixed with the RT2 SYBR Green fluor Mastermix and aliquoted into the wells of the RT2 Profiler PCR Array. RT-PCR was performed on an iCycler. Gene expression was compared using Ct values and the results were calculated using ΔΔ Ct method with normalization to the average expression levels of the five common genes (ACTB, B2M, GAPDH, HPRT, and RPL13A).

GPX4 = test: Human oxidative stress RT2 Profiler PCR array in HGEPp cells: GPX4; conditions: 100 μg/ml, 24 h, RT-PCR ΔΔCt
Description: as §2, §3, §4

PRDX2 = test: Human oxidative stress RT2 Profiler PCR array in HGEPp cells: PRDX2; conditions: 100 μg/ml, 24 h, RT-PCR ΔΔCt
Description: as §2, §3, §4

HGEPp cells [2] = test: ROS production in H2O2-induced oxidatively stressed HGEPp cells; conditions: HGEPp cells pretreated 24 hrs at 100 μg/mL, then 0.3 mM H2O2 for 4 h; positive control 139%

| Molecule | PTGS1 down regulation relative fold change (PTGS1) [fold] | GCLM up regulation relative fold change (GCLM) [fold] | GPX1 up regulation relative fold change (GPX1) [fold] | SOD1 up regulation relative fold change (SOD1) [fold] | GSTP1 up regulation relative fold change (GSTP1) [fold] | UCP2 down regulation relative fold change (UCP2) [fold] | GTF2i down regulation relative fold change (GTF2i) [fold] | ROS level (optical density, Normal = 100% baseline), as reported in PCT/IB2017/001312 (HGEPp cells [1]) [%] | GCLC up regulation relative fold change (GCLC) [fold] | NQO1 up regulation relative fold change (NQO1) [fold] | ALOX12 up regulation relative fold change (ALOX12) [fold] | MPO up regulation relative fold change (MPO) [fold] | GPX4 up regulation relative fold change (GPX4) [fold] | PRDX2 down regulation relative fold change (PRDX2) [fold] | ROS level (optical density, Normal = 100% baseline) (HGEPp cells [2]) [%] |
| --- | --- | --- | --- | --- | --- | --- | --- | --- | --- | --- | --- | --- | --- | --- | --- |
| Cc1c(-c2cnccn2)ssc1=S [ST-617-API, 4-methyl-5-(pyrazin-2-yl)-3H-1,2-dithiole-3-thione, reference compound] | 0.22 | 3.03 | 4.88 | 2.46 | 2.17 | 0.18 | 0.34 | 124 | 4.14 | 2.95 | 6.15 | – | – | – | – |
| methyl iodide complex of oltipraz [Example 5] | 0.28 | 2.27 | 4.98 | 3.89 | 2.90 | 0.29 | 0.33 | – | 3.38 | 3.15 | 6.04 | 3.18 | 2.85 | 0.32 | 134 |
| n-butyl chloride complex of oltipraz [Example 4] | 0.27 | 2.38 | 4.80 | 4.15 | 2.88 | 0.25 | 0.35 | – | 3.35 | 3.34 | 5.82 | 3.20 | 2.96 | 0.32 | 128 |
| thiobenzoic acid complex of oltipraz [Example 11] | 0.22 | 3.08 | 4.82 | 4.96 | 3.07 | 0.15 | 0.29 | – | 4.46 | 4.09 | 6.39 | 3.44 | 2.94 | 0.27 | 116 |
